Patent US20080125498A1, “TREATMENT OF NEURODEGENERATIVE DISEASES AND CONDITIONS USING PAR1 ANTAGONISTS” (priority 2001, published 2008)

Legend:
PAR1 [1] = format: cell-based, rat
PAR1 [2] = assay: PI hydrolysis in hippocampal slices; format: cell-based, mouse; settings: wild type hippocampus / hippocampal slices
Source text: PAR1 is a seven transmembrane G-protein coupled receptor that stimulates G-alpha-q to initiate phosphatidyl inositol (PI) hydrolysis. To ensure that PAR1 is functional in regions of the brain that are subject to ischemic damage in the mouse transient focal ischemia model, we tested the ability of several activators of PAR1 to initiate PI hydrolysis (Chung et al., 1997) in the hippocampus and striatum.
Since tPA activates plasminogen to form plasmin, we tested whether exogenously applied tPA could activate endogenous plasminogen in brain slices to form plasmin and activate PAR1.

NR1 subunit [3] = molecular target: T1, NR1 subunit (Rattus norvegicus, UniProt P35439); assay: Thrombin cleavage of recombinant NR1 subunits in HEK 293 cells (immunoblot); format: biochemical; settings: 10-1000 U/ml thrombin
T1 construct: expressed in transfected cells; host or cells: HEK 293 cells, transient transfection; isolated membranes treated with thrombin
Experimental: NMDA receptor subunit immunoblots. Human embryonic kidney (HEK) cells were maintained in DMEM supplemented with 0.5 mM glutamine, 1 mM pyruvate, penicillin, streptomycin, and 10% fetal bovine serum in a humidified environment with 5% CO2, and transfected with 1 microgram/ml of NR1 or 1:2 microgram/ml NR1:NR2 cDNA. Cells were washed in ice-cold HEPES buffered saline (HBS), scraped on ice, and membranes isolated by centrifugation at 12,000×g. […] Adult rat brain regions were dissected, frozen in liquid nitrogen, homogenized in ice-cold HEPES buffered saline (HBS), centrifuged, and stored at −20° C. Membranes were resuspended in HBS and treated with thrombin or buffer for 30 min at 37° C. Samples were centrifuged, and the membrane pellet resuspended in 2% sodium dodecylsulphate (SDS), 62.5 mM Tris, 10% glycerol, 5% beta-mercaptoethanol, 0.05% bromophenol blue (pH 6.8); some samples were treated with IOU DNase for 10 min at 37° C. SDS/polyacrylamide gel electrophoresis (SDS/PAGE) and protein blotting to Immobilon-P membranes was performed as described (Lau and Huganir, Differential tyrosine phosphorylation of N-methyl-D-aspartate receptor subunits. J Biol Chem 270: 20036-20041, 1995). […] The percent of receptor cleaved by thrombin was determined using densitometry.

NR1 subunit [4] = assay: NMDA receptor subunit immunoblots of thrombin-treated brain membranes; format: biochemical, rat
NMDA receptor [5] = assay: Whole cell patch recording of NMDA-evoked currents in hippocampal slice CA1 pyramidal neurons; format: cell-based, rat; settings: for average peak potentiation by thrombin: 1.4 mM Mg2+, n=19
NMDA receptor [6] = assay: Two electrode voltage clamp of recombinant NMDA receptors with or without PAR1 in Xenopus oocytes; format: cell-based, Xenopus laevis
Experimental: Expression and recording of NMDA and PAR1 receptor function in Xenopus laevis oocvtes. cRNA was synthesized from linearized template cDNA according to manufacturer specifications (Ambion, Austin, Tex.). Xenopus oocytes were removed from ovaries of female frogs anesthetized with 0.3% 3-aminobenzoic acid ethylester. Groups of 20-30 stage V-VI oocytes were incubated in 292 U/ml Worthington (Freehold, N.J.) Type IV collagenase for 2 hours with slow shaking. The oocytes were rinsed in Barth's solution, and stored at 17° C. in Barth's solution supplemented with 100 microgram/ml gentamycin and 40 microgram/ml streptomycin. Control oocytes were injected with 3 ng NR1 subunit and 7 ng NR2B subunit. Other oocytes were injected with the NMDA receptor subunits plus 3 ng PAR1 cRNA. Two electrode voltage clamp recordings were made 3-7 days post-injection. Oocytes were continually perfused with recording solution (in mM, 90 NaCl, 1 KCl, 10 HEPES, pH 7.4) and held under voltage clamp at −30 to −50 mV with an OC-725B amplifier (Warner Instruments, Hamden, Conn.). Recording solution was supplemented with 1.0 mM CaCl2 during initial impalement of the oocytes and subsequently 0.5 mM BaCl2 during recording to reduce the calcium-activated chloride current endogenous to oocytes. […] NMDA receptor currents were evoked by 20 micromolar glutamate/10 micromolar glycine perfused for 0.5-1 minute. […] Expression of PAR1 protein was verified by a thrombin or SFLLRN-stimulated rapidly desensitizing inward current at −30 mV that reflects the Ca^2+-activated Cl^− current endogenous to the oocyte. To test the ability of thrombin to modify NMDA receptor function in oocytes, recordings of receptor function were made both before and after a 15-60 min incubation in recording solution supplemented with thrombin in Eppendorf tubes at room temperature. […] Oocytes with responses less than 50 nA were not included in the analysis.

hippocampal slices = assay: Transmitted light measurements in hippocampal slices (extracellular volume fraction); format: cell-based, rat; settings: 3-7 U/ml thrombin, 10-20 minutes
Experimental: Rat hippocampal slices were prepared as described above, and were bathed in a submerged chamber with 0.5 micromolar TTX, and 3-7 U/ml thrombin in 0.5 micromolar TTX applied for 10-20 minutes. The intensity of transmitted light (450-490 nm) through hippocampal slices was monitored as an indication of extracellular volume fraction (Andrew and MacVicar, Imaging cell volume changes and neuronal excitation in the hippocampal slice. Neuroscience 62: 371-383, 1994). Images were recorded using a Princeton Micromax CCD camera (Trenton, N.J.; 0.2 sec exposure every 20 to 40 sec) and analyzed using Axon Imaging Workbench 2.1 software (Foster City, Calif.). Intensity was expressed as I/Io where Io is the intensity of transmitted light prior to treatment. Solutions were made hyperosmotic by addition of 30 mM mannitol, which can produce a 10% expansion of the extracellular volume fraction (McBain et al. Regional variation of extracellular space in hippocampus. Science 249: 674-677, 1990). Hypoosmotic solutions were obtained by addition of 10% v/v water.

NMDA receptor [7] = assay: Whole cell patch recording of NMDA-evoked currents in hippocampal CA1 pyramidal cells of wild-type and PAR1-/- mice; format: cell-based, mouse
NR1 subunit [8] = assay: NMDA receptor subunit immunoblots of thrombin-treated brain membranes; format: biochemical, rat; remark: listed apart in the source
Experimental: NMDA receptor subunit immunoblots. Human embryonic kidney (HEK) cells were maintained in DMEM supplemented with 0.5 mM glutamine, 1 mM pyruvate, penicillin, streptomycin, and 10% fetal bovine serum in a humidified environment with 5% CO2, and transfected with 1 microgram/ml of NR1 or 1:2 microgram/ml NR1:NR2 cDNA. Cells were washed in ice-cold HEPES buffered saline (HBS), scraped on ice, and membranes isolated by centrifugation at 12,000×g. […] Adult rat brain regions were dissected, frozen in liquid nitrogen, homogenized in ice-cold HEPES buffered saline (HBS), centrifuged, and stored at −20° C. Membranes were resuspended in HBS and treated with thrombin or buffer for 30 min at 37° C. Samples were centrifuged, and the membrane pellet resuspended in 2% sodium dodecylsulphate (SDS), 62.5 mM Tris, 10% glycerol, 5% beta-mercaptoethanol, 0.05% bromophenol blue (pH 6.8); some samples were treated with IOU DNase for 10 min at 37° C. SDS/polyacrylamide gel electrophoresis (SDS/PAGE) and protein blotting to Immobilon-P membranes was performed as described (Lau and Huganir, Differential tyrosine phosphorylation of N-methyl-D-aspartate receptor subunits. J Biol Chem 270: 20036-20041, 1995). Membranes were blocked for 30 min in 0.2 M Tris base, 1.37 M NaCl, pH 7.4, containing 5% nonfat dry milk, and incubated overnight at 4° C. in primary antibodies: NR1 mAb54.1 (gift from Dr. S. Heinemann, Salk Institute, La Jolla Calif.), NR1 alt-C-terminal (Upstate Biotechnology, Lake Placid, N.Y.), NR2A C-terminal (Chemicon, Temecula, Calif.), or NR2B C-terminal (Upstate Biotechnology). Membranes were washed 3×, and incubated with HRP-conjugated goat anti-mouse or goat anti-rabbit antibodies (1:10,000), washed 3×, and developed using enhanced chemiluminescence. The percent of receptor cleaved by thrombin was determined using densitometry.

With thrombin the “Fluo-3 fluorescence in soma and dendrites” value (PAR1 [1]) was “robust increase”, the PI hydrolysis (PAR1 [2]) was “increased PI hydrolysis” and the “cleavage of recombinant NR1-1b and NR1-1b/NR2B receptors” value (NR1 subunit [3]) was “cleaved both homomeric NR1-1b receptors”. For the same substance, the “predicted cleavage of NR1 protein” value (NR1 subunit [4]; 15 minute treatment of slices at 23 C, 3 U/ml, extrapolated assuming linear time, Q10 2.5) was 1%, the “NR1 cleavage product in CA1 region microdissected from slices” value (NR1 subunit [4]; 15 minutes of 3 U/ml thrombin application at 23 C) was “no NR1 cleavage product was observed” and the NR1 subunit cleaved (NR1 subunit [4]; hippocampal membranes, 30 nM thrombin (3 U/ml), 1 hour at 37 C) was 20%. For the same substance, the “peak potentiation of NMDA responses” value (NMDA receptor [5]; 30 nM (3 U/ml) thrombin, -70 mV, within 20 minutes, n=21) was 2.07±0.27 fold, the “average peak potentiation by thrombin” value (NMDA receptor [5]; -40 mV) was 1.48±0.11 fold and the “average peak potentiation by thrombin” value (NMDA receptor [5]; -70 mV) was 2.10±0.29 fold. The “thrombin potentiation of the NMDA response” value (NMDA receptor [5]; cells excluded for low input resistance or increased series resistance, n=12) was 1.8±0.2 fold, the thrombin-induced potentiation (NMDA receptor [5]; cells held at 0 mV, briefly stepped to -70 mV, n=7) was 2.7±0.7 fold and the “potentiation of NR1-1a/NR2A receptors coexpressed with PAR1” value (NMDA receptor [6]; 3 nM thrombin, n=6) was 1.68±0.11 fold. For the same substance, the “potentiation of NR1-1a/NR2A receptors coexpressed with PAR1” value (NMDA receptor [6]; 300 μM thrombin (so in the source), n=7) was 1.37±0.08 fold, the “current response amplitude after incubation” value (NMDA receptor [6]; 300-1000 nM thrombin, 60 minutes, n=7, buffer controls 78±5%) was 42±9% and the “ratio of NMDA receptor-mediated current after to before application” value (NMDA receptor [6]; NR1-1a/NR2B, oocytes without PAR1, n=9) was 0.87±0.04. For the same substance, the “PAR1 potentiation of NR1-1a(C798A)/NR2B receptors” value (NMDA receptor [6]; control oocytes lacking PAR1, n=5) was 0.98±0.05, the “cleavage of NR1 subunit” value (NMDA receptor [6]; low concentrations of thrombin (0.3-3 nM)) was “did not produce any cleavage” and the “response amplitude of NR1/NR2A and NR1/NR2B receptors vs buffer” value (NMDA receptor [6]; oocytes lacking thrombin receptors, 3 U/ml, 15 minutes, 23 C) was “no significant difference”. For the same substance, the “PAR1 potentiation of NR1-1a(C798A)/NR2B receptors” value (NMDA receptor [6]; oocytes with PAR1, n=7) was 1.35±0.07, the “potentiation of NR2A containing receptors” value (NMDA receptor [6]; presence of 10 micromolar EDTA, n=12) was 2.01±0.17 fold and the “amplitude of NMDA receptor responses, NR1-1a with NR2c or NR2D” value (NMDA receptor [6]; thrombin activation of PAR1) was “unaffected”. The “intensity of transmitted light I/Io” value (hippocampal slices; stratum pyramidale) was 1.00±0.01, the “intensity of transmitted light I/Io” value (hippocampal slices; stratum radiatum) was 1.01±0.01 and the NMDA receptor responses (NMDA receptor [7]; PAR1-/- C57B1/6 mice, thrombin application) was “did not significantly increase”. The “potentiation of responses to pressure-applied NMDA plus glycine” value (NMDA receptor [7]; wild-type C57B1/6 mice, 3 U/ml thrombin) was “robust potentiation”, the NR1 subunits cleaved (NR1 subunit [8]; 1-3 micromolar thrombin, all brain regions except striatum) was 100% and the “molecular weight shift of NR2A or NR2B subunits” value (NR1 subunit [8]; brain membranes, 3-300 U/ml thrombin) was “did not induce any observable molecular weight shift”. For the same substance, the “cleavage of NR1 subunits” value (NR1 subunit [8]; cerebellar, cortical and brainstem membranes, 300 nM thrombin (30 U/ml)) was “insensitive to cleavage”, the NR1 cleaved (NR1 subunit [8]; striatal membranes, 30 nM thrombin (3 U/ml)) was 50% and the “maximal observed cleavage of NR1” value (NR1 subunit [8]; striatum, 1-3 micromolar thrombin) was 52%.
